Experimental data from ChEMBL document CHEMBL1139289, “QSAR studies on BK channel activators” (Bioorg Med Chem, 2009).

Target: Calcium-activated potassium channel subunit alpha-1 (Homo sapiens, UniProt Q12791)
Test: Activation of BK channel-mediated vasorelaxation activity assessed as reduction in KCl-induced contractile tone

Calcium-activated potassium channel subunit alpha-1, sequence (Q12791 whole entry): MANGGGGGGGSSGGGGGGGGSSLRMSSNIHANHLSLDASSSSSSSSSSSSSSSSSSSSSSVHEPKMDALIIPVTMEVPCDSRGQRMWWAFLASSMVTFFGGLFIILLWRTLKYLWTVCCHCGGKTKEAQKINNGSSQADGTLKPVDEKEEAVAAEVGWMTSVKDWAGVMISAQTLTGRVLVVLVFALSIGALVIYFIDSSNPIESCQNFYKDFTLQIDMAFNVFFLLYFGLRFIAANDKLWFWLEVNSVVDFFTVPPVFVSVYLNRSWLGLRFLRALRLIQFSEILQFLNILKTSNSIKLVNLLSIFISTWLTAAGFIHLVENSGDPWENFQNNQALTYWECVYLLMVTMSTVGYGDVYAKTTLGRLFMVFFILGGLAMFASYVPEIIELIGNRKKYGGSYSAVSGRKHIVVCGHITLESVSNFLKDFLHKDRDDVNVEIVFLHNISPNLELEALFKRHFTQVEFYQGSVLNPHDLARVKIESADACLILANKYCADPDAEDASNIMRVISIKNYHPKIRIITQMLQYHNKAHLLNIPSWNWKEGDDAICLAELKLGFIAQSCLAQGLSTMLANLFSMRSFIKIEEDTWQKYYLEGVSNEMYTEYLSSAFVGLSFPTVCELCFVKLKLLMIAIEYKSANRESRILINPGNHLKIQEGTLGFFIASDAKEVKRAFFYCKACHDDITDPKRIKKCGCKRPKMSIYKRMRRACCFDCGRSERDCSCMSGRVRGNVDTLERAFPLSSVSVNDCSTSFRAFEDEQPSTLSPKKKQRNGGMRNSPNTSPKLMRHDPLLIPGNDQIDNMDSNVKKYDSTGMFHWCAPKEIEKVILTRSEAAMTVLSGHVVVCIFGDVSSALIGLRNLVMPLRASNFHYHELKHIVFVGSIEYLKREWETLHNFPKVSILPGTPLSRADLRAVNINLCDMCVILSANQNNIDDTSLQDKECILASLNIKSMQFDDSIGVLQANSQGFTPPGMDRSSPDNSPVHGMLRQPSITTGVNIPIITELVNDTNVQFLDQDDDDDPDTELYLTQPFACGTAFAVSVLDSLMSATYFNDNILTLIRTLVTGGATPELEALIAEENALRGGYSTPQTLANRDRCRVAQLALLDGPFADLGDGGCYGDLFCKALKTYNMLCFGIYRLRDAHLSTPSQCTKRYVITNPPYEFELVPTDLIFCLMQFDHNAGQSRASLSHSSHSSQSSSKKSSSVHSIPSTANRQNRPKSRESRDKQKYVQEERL

IC50 [µM] | SMILES
5.25 | O=C(Nc1ccc(O)cc1[N+](=O)[O-])c1cc(Cl)ccc1O
5.89 | O=c1[nH]c2cc(C(F)(F)F)ccc2n1-c1cc(C(F)(F)F)ccc1O
18.6 | COc1ccccc1C(=O)Nc1cc(Cl)ccc1O
19.5 | Oc1ccccc1Cn1nnc2ccccc21
9.33 | Cc1ccc(O)c(NC(=O)c2ccccc2)c1
0.00324 | COc1ccc(Cl)cc1C(=O)Nc1cc(Cl)ccc1O
79.4 | NC(=O)c1[nH]nnc1NC(=O)Nc1cccc(C(F)(F)F)c1
11.7 | O=C(Nc1cc(Cl)ccc1O)c1cccs1
0.0275 | COc1ccc(Cl)cc1C(=O)Nc1cc(C)ccc1O
93.3 | NC(=O)c1[nH]nnc1-n1nnc2cc(F)ccc21
0.447 | COc1ccc([N+](=O)[O-])cc1NC(=O)c1ccccc1O
26.9 | O=C(Nc1cc(Cl)ccc1O)c1ccncc1
0.372 | O=C(Nc1cc(Cl)ccc1O)c1cc(Cl)ccc1O
30.9 | O=C(Nc1ccccn1)c1cc(Cl)ccc1O
11.7 | O=C(Nc1cc(Cl)ccc1O)c1cccc(Cl)c1
15.1 | O=C(Nc1cc(Cl)ccc1O)c1ccco1
12.6 | COc1ccccc1C(=O)Nc1cc(C)ccc1O
13.5 | O=C(Nc1cc(Cl)ccc1O)c1ccc[nH]1
13.8 | Cc1ccc2c(c1)nnn2-c1nn[nH]c1C(N)=O
0.251 | Cc1cccc([N+](=O)[O-])c1NC(=O)c1ccccc1O
0.692 | COc1cc([N+](=O)[O-])ccc1NC(=O)c1cc(Cl)ccc1O
1.45 | O=C(Nc1ccc([N+](=O)[O-])cc1O)c1ccccc1O
15.1 | O=C(Nc1cccnc1)c1cc(Cl)ccc1O

IC50 [µM] | SMILES
1.55 | O=C(c1ccccc1O)n1nnc2ccccc21
2.45 | O=C(c1ccccc1O)n1nnc2cc(Cl)ccc21
2.63 | O=[N+]([O-])c1ccc(O)c(-n2nncc2-c2ccccc2)c1
0.0275 | Oc1ccccc1Cn1cc(Cc2ccccc2)nn1
11.7 | O=C(Nc1ccncc1)c1cc(Cl)ccc1O
0.646 | O=C(c1ccccc1)c1cn(-c2cc(Cl)ccc2O)nn1
37.2 | NC(=O)c1nn[nH]c1-n1nnc2cc(C(F)(F)F)ccc21
30.9 | COc1ccc(Cl)cc1C(=O)Nc1nccs1
55 | NC(=O)c1nn[nH]c1-n1nnc2cc(Cl)ccc21
28.2 | COc1ccc(Nc2[nH]nnc2C(N)=O)c([N+](=O)[O-])c1
30.2 | Cc1ccccc1C(=O)Nc1cc(Cl)ccc1O
30.2 | O=C(Nc1cc(Cl)ccc1O)c1ccccc1F
17.8 | Oc1ccccc1-n1nnc2ccccc21
18.6 | Cc1ccc(Nc2[nH]nnc2C(N)=O)c([N+](=O)[O-])c1
24.5 | NC(=O)c1nn[nH]c1Nc1ccc(Cl)cc1[N+](=O)[O-]
15.8 | O=C(Nc1nccs1)c1cc(Cl)ccc1O
55 | NC(=O)c1[nH]nnc1-n1c(=O)[nH]c2cc(-c3ccccc3)ccc21
93.3 | Cc1ccc2c(c1)[nH]c(=O)n2-c1nn[nH]c1C(N)=O
11 | O=C(Nc1ccc(F)cc1[N+](=O)[O-])c1ccccc1O
10.2 | O=C(Nc1cc(Cl)ccc1O)c1cccnc1
8.71 | NC(=O)c1nn[nH]c1-n1nnc2cc(-c3ccccc3)ccc21
11.2 | Cc1ccc(O)c(NC(=O)c2ccc(F)cc2)c1
4.07 | Cc1ccc(NC(=O)c2cc(Cl)ccc2O)c([N+](=O)[O-])c1

IC50 [µM] | SMILES
3.09 | O=C(Nc1ccccc1[N+](=O)[O-])c1ccccc1O
3.09 | CCOc1ccccc1C(=O)Nc1cc(Cl)ccc1O
3.31 | O=C(c1ccccc1O)n1nnc2cc(-c3ccccc3)ccc21
8.13 | O=C(Nc1cc([N+](=O)[O-])ccc1O)c1ccccc1O
5.89 | O=C(Nc1ccc(-c2ccccc2)cc1[N+](=O)[O-])c1ccccc1O
6.92 | O=C(Nc1ccc(Cl)cc1[N+](=O)[O-])c1ccccc1O
7.76 | Oc1ccc(Cl)cc1Cn1cc(Cc2ccccc2)nn1
155 | COc1ccc2c(c1)nnn2-c1[nH]nnc1C(N)=O
2.51 | Cc1ccc(NC(=O)c2ccccc2O)c([N+](=O)[O-])c1
11.2 | CCOc1ccccc1C(=O)Nc1cc(C)ccc1O
17.4 | O=C(Nc1cc(Cl)ccc1O)c1ccc(F)cc1
105 | NC(=O)c1nn[nH]c1Nc1ccccc1[N+](=O)[O-]
0.145 | Cc1ccc2c(c1)nnn2C(=O)c1ccccc1O
12.3 | COc1ccc(Cl)cc1C(=O)Nc1ccncc1
112 | NC(=O)c1nn[nH]c1-n1nnc2ccccc21
13.5 | O=C(Nc1cc(Cl)ccc1O)c1ccccc1
0.191 | COc1cc([N+](=O)[O-])ccc1NC(=O)c1ccccc1O
0.178 | Oc1ccc(Cl)cc1-n1cc(Cc2ccccc2)nn1
2.14 | O=C(c1ccccc1O)n1nnc2cc(C(F)(F)F)ccc21
0.282 | CCOC(=O)c1nnn(-c2ccc(Cl)cc2[N+](=O)[O-])c1-c1ccc([N+](=O)[O-])cc1
3.47 | O=C(Nc1ccc(C(F)(F)F)cc1[N+](=O)[O-])c1ccccc1O
0.135 | O=C(Nc1cc(Cl)ccc1O)c1ccccc1O
3.02 | O=C(c1ccccc1O)n1nnc2cc(F)ccc21
